Assay results taken from patent US20030108612A1, “Metallic nanoparticles for inhibition of bacterium growth” (priority 2001, published 2003).

Legend:
[1] = tested on: Pseudomonas aeruginosa cells (WT, na1B, ΔABM); experiment: Overnight culture, visual inspection of turbidity (MIC); type: cell-based; details: visual inspection after overnight incubation
Description: Three strains of Pseudomonas aeruginosa cells (WT, na1B, ΔABM) were used in this working example. “WT” stands for wild type P. aeruginosa, PA04290. The symbol “AABM” stands for a mutant of wild type P. aeruginosa, PA04290, lacking MexA, MaxB and OprM, wherein MexA, MexB and OprM are component genes of an efflux system in wild type P. aeruginosa. The symbol “na1B” stands for a mutant of wild type P. aeruginosa, PA04290, having over expression of the MexA, MexB and OprM genes. These three strains were precultured in autoclaved test tubes overnight. Each test tube contained 3 mL of L-broth medium (1% tryptone, 0.5% yeast extract and 0.5% NaCl, pH 7.2) and was placed inside a shaker at 37° C. and 230 rpm. Then, 20 μL of this pre-cultured cell medium was transferred to each new test tube containing 2 mL of L-broth medium and 0, 2, 20, 40, 80, 100, 200 and 400 μL of a sterile liquid containing 300 pM silver enhanced gold particles (as the metallic nanoparticles used in this example) prepared as described in Example 1. […] Based on visual inspection of test tubes (the presence or absence of turbidity in the medium in each of the test tube) after the overnight incubation, it was determined that the bacterial cells grew at a concentration of the silver coated gold particles of less than 20 pM, but not at a concentration of 20 pM or more. […]

[2] = tested on: P. aeruginosa, WT, na1B and ΔABM; experiment: Overnight culture, absorbance at 600 nm by UV-vis spectroscopy (MIC); type: cell-based, Pseudomonas aeruginosa; details: antibiotic concentration 3.13, 15.65 or 31.3 μg/mL, three strains
Description: After the overnight incubation, the absorbance of the […] an UV-vis spectrometer to determine the concentrations of bacterial cells based upon the light scattering of bacterial cells for the three strains of P. aeruginosa, WT, na1B and ΔABM. For each strain of P. aeruginosa cells and each concentration of the silver coated gold particles, the absorbances of 5 samples of the culture medium were measured with the absorbance of each sample measured 3 times and the average absorbance was calculated. The absorbance of ultra-pure water containing the corresponding concentration of silver coated gold particles was subtracted from the average absorbance and the resulting absorbance was plotted in FIG. 1 versus the concentrations of the silver coated gold particles used in the incubation. […] Thus, the MICs of the silver coated gold particles were determined to be about 20 pM for these three strains of P. aeruginosa.
With a UV-vis spectrometer, the absorbance of each sample of the culture medium was measured at 600 nm after the overnight incubation to determine the P. aeruginosa cell concentration based upon light scattering of cells. For each strain of P. aeruginosa cells, the absorbances of 4 samples of the P. aeruginosa culture medium containing azthreonam or gentamicin at a concentration of 0.313, 3.13, 15.65 or 31.3 μg/mL were measured. […]

[3] = tested on: P. aeruginosa, WT, na1B and ΔABM; experiment: Overnight culture, cell count by single-cell dark-field microscopy (MIC); type: cell-based, Pseudomonas aeruginosa; details: antibiotic concentration 3.13, 15.65 or 31.3 μg/mL
Description: Images were taken of the 5 samples using a dark-field microscope equipped with a Micromax CCD camera. For each of the three strains of P. aeruginosa, 5 samples of the […], 0.2, 2, 20 or 90 pM were examined using dark-field microscopy to count the number of P. aeruginosa cells present. For each sample, 5 pictures were taken at different locations to obtain representative numbers of P. aeruginosa cells present in each sample and the numbers of P. aeruginosa cells counted in the 5 pictures were summed to obtain the total number of P. aeruginosa cells in the 5 pictures. FIG. […] However, at a metallic nanoparticle concentration of 0, 0.2 or 2 pM, there were 200 or more P. aeruginosa cells in the 5 pictures of the culture medium. […] There were green, blue and red metallic nanoparticles, but the most abundant were green. The red nanoparticles appeared to be the brightest under the dark-field microscope because of the larger size.
After the overnight incubation described above, images were taken using a dark-field microscope equipped with a Micromax CCD camera. For each of the three strains of P. aeruginosa in the presence of azthreonam or gentamicin at a concentration of 0.313, 3.13, 15.65 or 31.3 μg/mL, 4 samples of the culture medium were subjected to single-cell dark-field microscopy. […]

WT P. aeruginosa = details: published literature; cited from earlier work

| Molecule | minimum inhibitory concentrations (MICs) [1] | absorbance at 600 nm [2] | total number of P. aeruginosa cells present in the 5 pictures [3] | MIC (WT P. aeruginosa) |
| --- | --- | --- | --- | --- |
| C[C@H]1[C@H](NC(=O)/C(=N\OC(C)(C)C(=O)O)c2csc(N)n2)C(=O)N1S(=O)(=O)O [azthreonam] | about 3.13 μg/mL | almost zero | almost zero | about 3.13 μg/mL |
| gentamicin | about 3.13 μg/mL | almost zero | almost zero | about 3.13 μg/mL |
